# Measured values taken from the supplement of paper PMC8967900.
# How the values were obtained:
# Assay in all cases: selective drug sensitivity score (sDSS, relative to normal bone marrow) (sDSS (score)); higher = more potent and effective on the cell line relative to normal bone marrow cells
# Details in all cases: 72 h
# [1] = system: COG-LL-317
# [2] = system: COG-LL-355h
# [3] = system: LC4-1
# [4] = system: NALM-6
# [5] = system: RCH-ACV
# [6] = system: DND-41
# [7] = system: MOLT-16
# [8] = system: TMD5
# [9] = system: KARPAS-45
# [10] = system: ALL-SIL
# [11] = system: REH
# [12] = system: TANOUE
# [13] = system: P12-ICHIKAWA
# [14] = system: SEM cells
# [15] = system: HPB-ALL
# [16] = system: PEER
# [17] = system: RPMI-8402
# [18] = system: COG-LL-319h
# [19] = system: MOLT-4
# [20] = system: MOLT-14
# 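Further: ALL cell lines in 384-well plates, five doses spanning 10,000-fold, each plate scaled between vehicle and 100 µmol/L benzalkonium chloride controls, sDSS an adapted area-under-curve metric.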
Structure (SMILES),selective drug sensitivity score [1],selective drug sensitivity score [2],selective drug sensitivity score [3],selective drug sensitivity score [4],selective drug sensitivity score [5],selective drug sensitivity score [6],selective drug sensitivity score [7],selective drug sensitivity score [8],selective drug sensitivity score [9],selective drug sensitivity score [10],selective drug sensitivity score [11],selective drug sensitivity score [12],selective drug sensitivity score [13],selective drug sensitivity score [14],selective drug sensitivity score [15],selective drug sensitivity score [16],selective drug sensitivity score [17],selective drug sensitivity score [18],selective drug sensitivity score [19],selective drug sensitivity score [20]
CC(=O)[C@]1(O)Cc2c(O)c3c(c(O)c2[C@@H](O[C@H]2C[C@H](N)[C@H](O)[C@H](C)O2)C1)C(=O)c1ccccc1C3=O [Idarubicin] (top concentration 1000 nM),13.2,3.14,4.04,7.94,12.7,0.34,15.9,1.94,-2.36,4.64,11.8,-12.6,8.24,6.74,3.14,-4.86,10.5,16.7,7.74,10.5
COc1cc2nccc(Oc3ccc(NC(=O)NC4CC4)c(Cl)c3)c2cc1C(N)=O [Lenvatinib] (top concentration 2500 nM),-0.24,-0.24,-0.24,-0.24,5.36,-0.24,-0.04,0.66,0.16,5.56,-0.24,-0.24,-0.24,0.36,-0.24,2.26,-0.24,6.16,0.36,-0.14
N#Cc1ccc(C(c2ccc(C#N)cc2)n2cncn2)cc1 [Letrozole] (top concentration 10000 nM),-0.04,-0.04,-0.04,-0.04,-0.04,1.06,-0.04,-0.04,-0.04,-0.04,4.76,1.16,-0.04,-0.04,-0.04,-0.04,-0.04,-0.04,-0.04,-0.04
CCNCCS(=O)(=O)NC[C@@]1(c2ccccc2)SC(NC(=O)C(C)(C)C)=NN1C(=O)C(C)(C)C [Litronesib] (top concentration 1000 nM),19.5,4.44,19.8,21.5,22.1,8.64,20.2,9.64,21.9,19.2,22.3,-7.36,18.5,20.5,19.7,21.4,18.7,22.4,13.8,20.7
CC[C@H](C)C(=O)O[C@H]1C[C@@H](C)C=C2C=C[C@H](C)[C@H](CC[C@@H]3C[C@@H](O)CC(=O)O3)[C@H]21 [Lovastatin] (top concentration 10000 nM),3.6,0,0.8,-0.1,0.2,-0.1,1.7,-0.1,3,0.9,1,-0.1,1.4,5,-0.1,1.2,1.8,-0.1,-0.1,-0.1
Cn1cc(-c2cnn3c(N)c(Br)c([C@@H]4CCCNC4)nc23)cn1 [MK-8776] (top concentration 2500 nM),6.14,0.54,0.54,-1.36,3.94,3.84,1.44,-1.46,0.34,2.04,0.24,-1.46,-0.36,2.64,-1.46,-0.26,1.44,1.04,-1.46,-1.26
Cc1cnc(-c2ccccc2C(C)C)nc1NCc1ccc(-n2ccnn2)cc1 [ML323] (top concentration 10000 nM),1.04,2.04,0.54,1.84,3.34,1.34,3.04,-0.26,4.64,2.64,3.44,1.44,1.74,1.14,0.64,4.24,3.44,1.14,1.34,1.94
O=C(CCNC(=O)c1ccc(OC(F)(F)F)cc1)N[C@@H]1CCCc2ccccc21 [ML390] (top concentration 50000 nM),16.8,8.6,7.4,10.8,21,5.4,20.8,-1.2,7.1,2,16.1,3.5,18.5,10.8,6.5,5.5,12.6,16.9,15.2,16.6
CN(C)C(=N)NC(=N)N [Metformin] (top concentration 100000 nM),-0.02,-0.02,-0.02,-0.02,-0.02,0.08,-0.02,-0.02,-0.02,-0.02,0.08,-0.02,-0.02,-0.02,-0.02,-0.02,-0.02,-0.02,-0.02,-0.02
C[C@H]1C[C@@H]2[C@H]([C@@H](O)C[C@@]3(C)[C@H]2CC[C@]3(O)C(=O)CO)[C@@]2(C)C=CC(=O)C=C12 [Methylprednisolone] (top concentration 10000 nM),5.4,22.9,5.9,22.4,30.2,31.6,7.9,15,16.4,10.9,-2.3,-2.3,19.8,7.9,5,-1.5,-2.1,14.2,-2.3,-2.3
FC(F)(F)c1ccc(/C=C/c2nc(COc3ccc(CCCCn4ccnn4)cc3)co2)cc1 [Mubritinib] (top concentration 1000 nM),2.26,2.76,4.86,12.1,12.7,5.46,18.6,0.26,11.6,8.66,20,18.7,20.7,6.56,8.86,21.7,22.5,11.1,19.6,4.46
COc1cc2c(cc1OC(C)C)[C@H](c1ccc(Cl)cc1)N(c1ccc(N(C)C[C@H]3CC[C@H](N4CCN(C)C(=O)C4)CC3)cc1)C(=O)C2 [NVP-CGM097] (top concentration 25000 nM),17.2,2.86,10.1,5.66,10.6,-5.64,10.4,7.86,-3.94,-6.74,5.16,-3.04,-5.64,-4.84,-3.14,-2.14,-4.64,10.8,11.8,8.36
CCOc1cc2ncc(C#N)c(Nc3ccc(OCc4ccccn4)c(Cl)c3)c2cc1NC(=O)/C=C/CN(C)C [Neratinib] (top concentration 1000 nM),1.18,5.68,3.58,0.48,5.38,-0.62,1.98,-0.52,2.28,1.08,-0.12,-0.72,1.28,1.28,2.38,2.88,3.08,6.58,1.38,4.28
COc1ncc(-c2ccc3nccc(-c4ccnnc4)c3c2)cc1NS(=O)(=O)c1ccc(F)cc1F [Omipalisib] (top concentration 1000 nM),4,19.5,1.6,17.2,30,-0.8,10,-2.2,9.4,4.6,14.4,-4,4,9.4,3.8,-3,10.9,9.8,14,-2.2
CN1CCN(c2cc(C(=O)Nc3ccc4c(c3)-c3c(c(C(N)=O)nn3-c3ccc(F)cc3)CC4)c(Cl)cn2)CC1 [PHA-408] (top concentration 10000 nM),-1.22,3.38,3.98,0.78,5.28,3.48,1.28,-1.22,0.98,2.58,0.08,-4.92,-0.02,-2.02,-0.92,3.18,1.88,5.08,0.58,-0.22
OC[C@H]1O[C@@H](n2cnc3c2N=CNC[C@H]3O)C[C@@H]1O [Pentostatin] (top concentration 10000 nM),-0.44,1.26,-0.44,-0.44,-0.44,-0.44,-0.34,-0.24,-0.14,-0.44,-0.44,0.36,-0.44,-0.44,-0.44,-0.44,-0.44,3.06,-0.44,-0.24
CC(C)N(C[C@H]1O[C@@H](n2cnc3c(N)ncnc32)[C@H](O)[C@@H]1O)[C@H]1C[C@@H](CCc2nc3cc(C(C)(C)C)ccc3[nH]2)C1 [Pinometostat] (top concentration 1000 nM),0,0,0,0,0,0,0,0,0,0.2,0,0,0,0,0,0,0,0,0,0
Cc1ccc(=O)n(-c2ccccc2)c1 [Pirfenidone] (top concentration 10000 nM),0,0,0,0,0,0,0,0,0,0,0,0,0,0,0,0,0,1.2,0,0
